Measured values taken from patent US10071990B2, “Site-specific orthogonal labeling of the carboxy terminus of α-tubulin in live cells” (The Research Foundation for The State University of New York, priority 2013, dated 2018).
Like-named read-outs stand apart in the source and are kept apart here. Each block holds one molecule with its values, some of them ahead of it.

Columns and labels:
[1] = Absorption and fluorescence spectra and quantum yield; assay type: physicochemical; settings: in methanol at 25° C.
Protocol: To test this hypothesis, the absorption and fluorescence spectra of coumarin hydrazine and the salicylaldehyde hydrazone of coumarin hydrazine were measured, which serves as a model compound for the protein-bound hydrazone. Hydrazone formation causes a shift in both the absorption and emission maxima of coumarin hydrazine and a significant increase in quantum yield (Table 2). Thus, as a result of the difference in the spectroscopic window and the quantum yields of coumarin hydrazine and its salicylaldehyde hydrazone, fluorescence from unreacted coumarin hydrazine can be averted.

tubulin tyrosine ligase = target: T1, tubulin tyrosine ligase (Homo sapiens, UniProt Q8NG68); assay: Inhibition of [3H]-L-tyrosine incorporation into tubulin by TTL; assay type: biochemical
T1 construct: made in house; host or cells: Escherichia coli BL21
T1 sequence (Q8NG68 1-377): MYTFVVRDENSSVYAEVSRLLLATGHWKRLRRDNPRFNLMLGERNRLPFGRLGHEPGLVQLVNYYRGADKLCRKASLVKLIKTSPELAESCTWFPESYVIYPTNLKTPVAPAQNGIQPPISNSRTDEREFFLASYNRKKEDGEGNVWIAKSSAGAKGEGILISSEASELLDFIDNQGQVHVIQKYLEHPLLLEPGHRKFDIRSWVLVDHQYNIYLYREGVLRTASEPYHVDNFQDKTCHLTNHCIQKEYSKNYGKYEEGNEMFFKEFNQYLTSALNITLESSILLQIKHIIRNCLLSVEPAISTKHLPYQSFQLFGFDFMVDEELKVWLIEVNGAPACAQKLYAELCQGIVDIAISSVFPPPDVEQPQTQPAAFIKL
Protocol: Tubulin Tyrosine Ligase. An initial supply of TTL was a gift of Prof. Dr. Jürgen Wehland and Dr. Christian Erck (Gesellschaft für Biotechnologische Forschung, Germany) and was stored at −80° C. Human TTL was prepared using expression vector p Receiver 05x (Genecopoeia, Md.), transformed into the Escherichia coli expression strain BL21.
[3H]-Tyr Incorporation Assay. TTL was thawed and diluted to 1 mg mL^−1 immediately before use. Detyrosinated tubulin (10 μM tubulin) in TTL buffer was combined with […] μL^−1 [3H-Tyr], 0.1 μg μL^−1 TTL, and various concentrations of inhibitor. The mixture was allowed to react for 30 min at 37° C. A 35 μL aliquot of the sample was placed onto DEAE chromatography paper (Whatman) and allowed to dry for 30 min. The protein was fixed using 200 μL of 10% acetic acid and allowed to dry for 10 min. Excess [3H-Tyr] was removed by 2 washes with 3.5 mL of 100% ethanol. The paper was allowed to dry for 30 min and then was combined with 10 mL of Scintiverse (BD) scintillation fluid. The amount of [3H]-tyrosine on each filter was determined using a β-counter.

PC3 cells [2] = assay: Effect on cell morphology and microtubule network (immunofluorescence); assay type: cell-based; settings: 24 hour treatment followed by treatment with a fluorophore
Protocol: PC3 cells were grown in F12K medium supplemented with unnatural amino acid for 24 h. Cells were washed and then treated with fluorophores for 24 h before fixing with methanol. Cells were then processed for immunofluorescence using tubulin antibody (red) and DAPI (blue).
PC3 cells were grown in F12K medium supplemented with unnatural amino acid for 24 h. Cells were washed and treated with a fluorophore for 24 h before fixing with methanol. Cells were then processed for immunofluorescence using tubulin antibody (red) and DAPI (blue).

cells = assay: SRB assay after 96 h treatment with amino acid; assay type: cell-based; settings: for IC50: cells treated 96 h, read-out: IC 50 (toxicity)
PC3 cells [3] = assay: SRB cytotoxicity of amino acid and fluorophore on live cells; assay type: cell-based; settings: 24 hour period
Protocol: PC3 cells were grown in medium supplemented with unnatural amino acid or vehicle for 24 h. Cells were then treated with fluorophore or vehicle for 24 h, following which an SRB assay was performed to assess the cytotoxicity of the molecules.
FIGS. 12A-12C show graphs of cytotoxicity of amino acid and fluorophore on live cells. The labeling technique is not detrimental to PC3 cell survival. PC3 cells were grown in medium supplemented with unnatural amino acid or vehicle (2% v/v, 10 mM phosphate buffer, pH 7) for 24 h. Cells were then treated with fluorophore or vehicle (1% v/v DMSO) for 24 h. Following which SRB assay was performed to assess the cytotoxicity of the molecules.

[4] = Kinetics of hydrazone formation by absorption difference spectroscopy; settings: reaction with 3-formyltyrosine, PME buffer pH 6.9, 25° C.
Text: Removal and replacement of the C-terminal tyrosine of α-tubulin can be assessed by Western blot. […] The presence of a carbonyl in α-tubulin was confirmed reacting the protein with dinitrophenylhydrazine (DNPH) followed L-tyrosine or 3-formyltyrosine as described under Methods and then subjected to SDS-PAGE. Top: Western blot with tyrosinated α-tubulin antibody (Sigma-Aldrich TUB-1A2). Bottom: Coomassie stain. Lane 1: Tubulin. Lane 2: Tubulin treated with CPA. Lane 3: CPA-treated tubulin retyrosinated with tyrosine. Lane 4: CPA-treated tubulin retyrosinated with 3-formyltyrosine. The mass of protein loaded each well was 0.66 μg for the Western blot and 10 μg for the protein stain. Hydrazone Formation: Effect of the Structure of the Nucleophile. Reactions of aldehydes and ketones with hydrazines, hydroxylamines, and amines have been extensively studied (33). The rate vs pH curve is bellshaped; the maximum reaction rate is around the pKa of the hydrazine. […]
Kinetic Measurements. Kinetics of hydrazone formation were measured using absorption difference spectroscopy. […] The change in absorbance for one wavelength was selected from the spectral data, and these values were plotted as a function of time. The data were analyzed as a single pseudo-first-order reaction and were fit to the appropriate equation using SigmaPlot 10.0.

[5] = from reference 34; cited from earlier work
[6] = inhibition of tubulin tyrosine ligase, 10 μM detyrosinated tubulin, 30 min at 37° C.

Molecule: CC(=O)c1cc(C[C@H](N)C(=O)O)ccc1O [AcY, 3-acetyltyrosine]
effect on microtubule network and cell morphology (PC3 cells [2]): does not alter the microtubule network or cell morphology
IC50 (cells): > 5000 µM
cytotoxicity compared with 3fY (PC3 cells [3]): less cytotoxic over 24 hour period than 3fY

Molecule: N[C@@H](Cc1ccc(O)cc1)C(=O)O [Tyrosine]
Ki (tubulin tyrosine ligase; [6]): 25 µM

Molecule: NNC(=O)[C@@H](N)Cc1ccc(O)cc1 [Yzide, tyrosine hydrazide, reference compound]
effect on microtubule network and cell morphology (PC3 cells [2]): does not alter the microtubule network or cell morphology
toxicity (cells; 5 mM ligand, 96 h): No toxicity observed
IC50 (cells): > 5000 µM

Molecule: Cc1cc(=O)oc2cc(NN)ccc12 [coumarin hydrazine, 7-hydrazino-4-methyl coumarin]
Abs max [1]: 360 nm
Em max [1]: 432 nm
φ (quantum yield) [1]: 0.046
time to complete hydrazone formation [4]: ≤ 120 min
second-order rate constant of hydrazone formation ([4]; no catalyst): 0.883 M⁻¹ s⁻¹

Molecule: NNc1ccccc1 [phenyl hydrazine]
pKa [5]: 5.3

Molecule: Phenyl hydrazide
pKa [5]: 3.1

Now from value to molecule, other results behind:

Abs max [1]: 380 nm
Em max [1]: 459 nm
φ (quantum yield) [1]: 0.131
Molecule: Cc1cc(=O)oc2cc(NN=Cc3ccccc3O)ccc12

Ki (tubulin tyrosine ligase; [6]): 200 µM
Molecule: Nc1cc(C[C@H](N)C(=O)O)ccc1O [3-Aminotyrosine]

Ki (tubulin tyrosine ligase): 200 µM
Molecule: [N-]=[N+]=Nc1cc(C[C@H](N)C(=O)O)ccc1O [3-Azidotyrosine]

Ki (tubulin tyrosine ligase): 300 µM
Molecule: N[C@@H](Cc1ccc(O)c(C=O)c1)C(=O)O [3-Formyltyrosine]
effect on microtubule network and cell morphology (PC3 cells [2]): does not alter the microtubule network or cell morphology
IC50 (cells): > 25 µM

Ki (tubulin tyrosine ligase): > 4000 µM
Molecule: Nc1ccc(C[C@H](N)C(=O)O)cc1 [4-Aminophenylalanine]
